Measurements reported in patent US6706663B2, “Herbicidal 3-heterocyclic substituted benzisothiazole and benzisoxazole compounds” (Wyeth, priority 2000, dated 2004).

What was measured:
GALAP (Galium aparine) [1] = test: Preemergence herbicidal evaluation; assay type: in vivo; settings: preemergence, rated 4-5 weeks after treatment
How it was run: (§1)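 Seeds planted in potting soil cups and sprayed preemergence with aqueous acetone compound solution. Greenhouse-grown; rated 4–5 weeks after treatment on a 0-9 visual scale (stand, vigor, malformation, size, chlorosis, appearance) versus control.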

[2] = test system: ABUTH (Abutilon theophrasti); test: Postemergence herbicidal evaluation; assay type: in vivo, Medic.
How it was run: (§2)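 Seedlings grown about two weeks in flats, sprayed, then kept under standard greenhouse care. Rated visually 4–5 weeks after treatment on a 0–9 scale (stand, vigour, malformation, size, chlorosis, overall appearance) relative to untreated control; repeat tests averaged.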

[3] = test system: ECHCG (Echinochloa crus-galli); test: Preemergence herbicidal evaluation; assay type: in vivo, (L.) Beau; settings: preemergence, rated 4-5 weeks after treatment
How it was run: as §1

SETVI (Setaria viridis) = test: Preemergence herbicidal evaluation; assay type: in vivo, (L.) Beau; settings: preemergence, rated 4-5 weeks after treatment
How it was run: as §1

[4] = test system: AMBEL (Ambrosia artemisifolia); test: Postemergence herbicidal evaluation; assay type: in vivo, L.
How it was run: as §2

[5] = test system: CASOB (Cassia obtusifolia); test: Postemergence herbicidal evaluation; assay type: in vivo, L.
How it was run: as §2

[6] = test system: CHEAL (Chenopodium album); test: Postemergence herbicidal evaluation; assay type: in vivo, L.
How it was run: as §2

GALAP (Galium aparine) [7] = test: Postemergence herbicidal evaluation; assay type: in vivo
How it was run: as §2

ORYSAT (Rice, Tebonnet) [8] = test: Preemergence herbicidal evaluation; assay type: in vivo, Oryza sativa, (L.) Tebonnet; settings: preemergence, rated 4-5 weeks after treatment
[9] = test system: TRZAWR (Wheat, Winter, cv Riband); test: Preemergence herbicidal evaluation; assay type: in vivo, Triticum aestivum; settings: preemergence, rated 4-5 weeks after treatment
How it was run: as §1

ZEAMX (Corn, Field) = test: Postemergence herbicidal evaluation; assay type: in vivo, Zea mays, L.
How it was run: as §2

ORYSAT (Rice, Tebonnet) [10] = test: Postemergence herbicidal evaluation; assay type: in vivo, Oryza sativa, (L.) Tebonnet
How it was run: as §2

[11] = test system: GLXMAW (Soybean, Williams); test: Postemergence herbicidal evaluation; assay type: in vivo, Glycine max, (L.) Merr. cv Williams
How it was run: as §2

[12] = test system: IPOHE (Ipomoea hederacea); test: Postemergence herbicidal evaluation; assay type: in vivo, (L.) Jacq.
How it was run: as §2

Cc1ccsc1-c1nsc2ccc(-n3c(=O)cc(C(F)(F)F)n(C)c3=O)cc12 [Compound 4, 1-methyl-3-[3-(3-methyl-2-thienyl)-1,2-benzisothiazol-5-yl]-6-(trifluoromethyl)uracil]
GALAP preemergence herbicidal rating (GALAP (Galium aparine) [1]; Rate 0.0620 kg/ha): 5.0
GALAP preemergence herbicidal rating (GALAP (Galium aparine) [1]; Rate 0.1250 kg/ha): 8.0
GALAP preemergence herbicidal rating (GALAP (Galium aparine) [1]; Rate 0.2500 kg/ha): 9.0
Postemergence herbicidal rating, ABUTH ([2]; rate 0.0320 kg/ha): 9.0
Postemergence herbicidal rating, ABUTH ([2]; rate 0.0620 kg/ha): 9.0
Postemergence herbicidal rating, ABUTH ([2]; rate 0.1250 kg/ha): 9.0
ECHCG preemergence herbicidal rating ([3]; Rate 0.0620 kg/ha): 7.0
ECHCG preemergence herbicidal rating ([3]; Rate 0.1250 kg/ha): 8.3
ECHCG preemergence herbicidal rating ([3]; Rate 0.2500 kg/ha): 9.0
SETVI preemergence herbicidal rating (SETVI (Setaria viridis); Rate 0.0620 kg/ha): 8.8
SETVI preemergence herbicidal rating (SETVI (Setaria viridis); Rate 0.1250 kg/ha): 9.0
SETVI preemergence herbicidal rating (SETVI (Setaria viridis); Rate 0.2500 kg/ha): 9.0
Postemergence herbicidal rating, AMBEL ([4]; rate 0.0320 kg/ha): 8.1
Postemergence herbicidal rating, AMBEL ([4]; rate 0.0620 kg/ha): 8.3
Postemergence herbicidal rating, AMBEL ([4]; rate 0.1250 kg/ha): 9.0
Postemergence herbicidal rating, CASOB ([5]; rate 0.0320 kg/ha): 5.2
Postemergence herbicidal rating, CASOB ([5]; rate 0.0620 kg/ha): 6.2
Postemergence herbicidal rating, CASOB ([5]; rate 0.1250 kg/ha): 9.0
Postemergence herbicidal rating, CHEAL ([6]; rate 0.0320 kg/ha): 9.0
Postemergence herbicidal rating, CHEAL ([6]; rate 0.0620 kg/ha): 9.0
Postemergence herbicidal rating, CHEAL ([6]; rate 0.1250 kg/ha): 9.0
Postemergence herbicidal rating, GALAP (GALAP (Galium aparine) [7]; rate 0.0320 kg/ha): 3.3
Postemergence herbicidal rating, GALAP (GALAP (Galium aparine) [7]; rate 0.0620 kg/ha): 6.0
Postemergence herbicidal rating, GALAP (GALAP (Galium aparine) [7]; rate 0.1250 kg/ha): 8.3
ORYSAT preemergence herbicidal rating (ORYSAT (Rice, Tebonnet) [8]; Rate 0.0620 kg/ha): 1.4
ORYSAT preemergence herbicidal rating (ORYSAT (Rice, Tebonnet) [8]; Rate 0.1250 kg/ha): 1.9
ORYSAT preemergence herbicidal rating (ORYSAT (Rice, Tebonnet) [8]; Rate 0.2500 kg/ha): 2.8
TRZAWR preemergence herbicidal rating ([9]; Rate 0.0620 kg/ha): 1.2
TRZAWR preemergence herbicidal rating ([9]; Rate 0.1250 kg/ha): 2.5
TRZAWR preemergence herbicidal rating ([9]; Rate 0.2500 kg/ha): 4.3
Postemergence herbicidal rating, ZEAMX (ZEAMX (Corn, Field); rate 0.0320 kg/ha): 4.4
Postemergence herbicidal rating, ZEAMX (ZEAMX (Corn, Field); rate 0.0620 kg/ha): 4.5
Postemergence herbicidal rating, ZEAMX (ZEAMX (Corn, Field); rate 0.1250 kg/ha): 5.0
Postemergence herbicidal rating, ORYSAT (ORYSAT (Rice, Tebonnet) [10]; rate 0.0320 kg/ha): 2.8
Postemergence herbicidal rating, ORYSAT (ORYSAT (Rice, Tebonnet) [10]; rate 0.0620 kg/ha): 3.8
Postemergence herbicidal rating, ORYSAT (ORYSAT (Rice, Tebonnet) [10]; rate 0.1250 kg/ha): 4.5
Postemergence herbicidal rating, GLXMAW ([11]; rate 0.0320 kg/ha): 6.2
Postemergence herbicidal rating, GLXMAW ([11]; rate 0.0620 kg/ha): 6.8
Postemergence herbicidal rating, GLXMAW ([11]; rate 0.1250 kg/ha): 7.3
Postemergence herbicidal rating, IPOHE ([12]; rate 0.0320 kg/ha): 8.6
Postemergence herbicidal rating, IPOHE ([12]; rate 0.0620 kg/ha): 9.0
Postemergence herbicidal rating, IPOHE ([12]; rate 0.1250 kg/ha): 9.0

Cn1ccnc1-c1nsc2ccc(-n3c(=O)cc(C(F)(F)F)n(C)c3=O)cc12 [Compound 5, 1-methyl-3-[3-(1-methylimidazol-2-yl)-1,2-benzisothiazol-5-yl]-6-(trifluoromethyl)uracil]
GALAP preemergence herbicidal rating (GALAP (Galium aparine) [1]; Rate 0.0620 kg/ha): 4.0
GALAP preemergence herbicidal rating (GALAP (Galium aparine) [1]; Rate 0.1250 kg/ha): 5.0
GALAP preemergence herbicidal rating (GALAP (Galium aparine) [1]; Rate 0.2500 kg/ha): 7.0
Postemergence herbicidal rating, ABUTH ([2]; rate 0.0320 kg/ha): 9.0
Postemergence herbicidal rating, ABUTH ([2]; rate 0.0620 kg/ha): 9.0
ECHCG preemergence herbicidal rating ([3]; Rate 0.0620 kg/ha): 2.5
ECHCG preemergence herbicidal rating ([3]; Rate 0.1250 kg/ha): 8.0
ECHCG preemergence herbicidal rating ([3]; Rate 0.2500 kg/ha): 9.0
SETVI preemergence herbicidal rating (SETVI (Setaria viridis); Rate 0.0620 kg/ha): 9.0
SETVI preemergence herbicidal rating (SETVI (Setaria viridis); Rate 0.1250 kg/ha): 9.0
SETVI preemergence herbicidal rating (SETVI (Setaria viridis); Rate 0.2500 kg/ha): 9.0
Postemergence herbicidal rating, AMBEL ([4]; rate 0.0320 kg/ha): 2.0
Postemergence herbicidal rating, AMBEL ([4]; rate 0.0620 kg/ha): 9.0
Postemergence herbicidal rating, CASOB ([5]; rate 0.0320 kg/ha): 0.0
Postemergence herbicidal rating, CASOB ([5]; rate 0.0620 kg/ha): 2.0
Postemergence herbicidal rating, CHEAL ([6]; rate 0.0320 kg/ha): 0.0
Postemergence herbicidal rating, CHEAL ([6]; rate 0.0620 kg/ha): 2.0
Postemergence herbicidal rating, GALAP (GALAP (Galium aparine) [7]; rate 0.0320 kg/ha): 0.0
Postemergence herbicidal rating, GALAP (GALAP (Galium aparine) [7]; rate 0.0620 kg/ha): 4.0
ORYSAT preemergence herbicidal rating (ORYSAT (Rice, Tebonnet) [8]; Rate 0.0620 kg/ha): 3.0
ORYSAT preemergence herbicidal rating (ORYSAT (Rice, Tebonnet) [8]; Rate 0.1250 kg/ha): 5.0
ORYSAT preemergence herbicidal rating (ORYSAT (Rice, Tebonnet) [8]; Rate 0.2500 kg/ha): 7.5
TRZAWR preemergence herbicidal rating ([9]; Rate 0.0620 kg/ha): 5.0
TRZAWR preemergence herbicidal rating ([9]; Rate 0.1250 kg/ha): 7.0
TRZAWR preemergence herbicidal rating ([9]; Rate 0.2500 kg/ha): 8.0
Postemergence herbicidal rating, ZEAMX (ZEAMX (Corn, Field); rate 0.0320 kg/ha): 4.5
Postemergence herbicidal rating, ZEAMX (ZEAMX (Corn, Field); rate 0.0620 kg/ha): 5.5
Postemergence herbicidal rating, ORYSAT (ORYSAT (Rice, Tebonnet) [10]; rate 0.0320 kg/ha): 2.0
Postemergence herbicidal rating, ORYSAT (ORYSAT (Rice, Tebonnet) [10]; rate 0.0620 kg/ha): 3.0
Postemergence herbicidal rating, GLXMAW ([11]; rate 0.0320 kg/ha): 5.5
Postemergence herbicidal rating, GLXMAW ([11]; rate 0.0620 kg/ha): 6.0
Postemergence herbicidal rating, IPOHE ([12]; rate 0.0320 kg/ha): 9.0
Postemergence herbicidal rating, IPOHE ([12]; rate 0.0620 kg/ha): 9.0

Cn1c(C(F)(F)F)cc(=O)n(-c2ccc3snc(-c4ccccn4)c3c2)c1=O [Compound 9, 1-methyl-3-[3-(2-pyridyl)-1,2-benzisothiazol-5-yl]-6-(trifluoromethyl)uracil]
GALAP preemergence herbicidal rating (GALAP (Galium aparine) [1]; Rate 0.0620 kg/ha): 1.5
GALAP preemergence herbicidal rating (GALAP (Galium aparine) [1]; Rate 0.1250 kg/ha): 3.0
GALAP preemergence herbicidal rating (GALAP (Galium aparine) [1]; Rate 0.2500 kg/ha): 7.0
Postemergence herbicidal rating, ABUTH ([2]; rate 0.0320 kg/ha): 9.0
Postemergence herbicidal rating, ABUTH ([2]; rate 0.0620 kg/ha): 9.0
Postemergence herbicidal rating, ABUTH ([2]; rate 0.1250 kg/ha): 9.0
ECHCG preemergence herbicidal rating ([3]; Rate 0.0620 kg/ha): 8.3
ECHCG preemergence herbicidal rating ([3]; Rate 0.1250 kg/ha): 9.0
ECHCG preemergence herbicidal rating ([3]; Rate 0.2500 kg/ha): 9.0
SETVI preemergence herbicidal rating (SETVI (Setaria viridis); Rate 0.0620 kg/ha): 9.0
SETVI preemergence herbicidal rating (SETVI (Setaria viridis); Rate 0.1250 kg/ha): 9.0
SETVI preemergence herbicidal rating (SETVI (Setaria viridis); Rate 0.2500 kg/ha): 9.0
Postemergence herbicidal rating, AMBEL ([4]; rate 0.0320 kg/ha): 9.0
Postemergence herbicidal rating, AMBEL ([4]; rate 0.0620 kg/ha): 9.0
Postemergence herbicidal rating, AMBEL ([4]; rate 0.1250 kg/ha): 9.0
Postemergence herbicidal rating, CASOB ([5]; rate 0.0320 kg/ha): 6.5
Postemergence herbicidal rating, CASOB ([5]; rate 0.0620 kg/ha): 8.0
Postemergence herbicidal rating, CASOB ([5]; rate 0.1250 kg/ha): 9.0
Postemergence herbicidal rating, CHEAL ([6]; rate 0.0320 kg/ha): 9.0
Postemergence herbicidal rating, CHEAL ([6]; rate 0.0620 kg/ha): 9.0
Postemergence herbicidal rating, CHEAL ([6]; rate 0.1250 kg/ha): 9.0
Postemergence herbicidal rating, GALAP (GALAP (Galium aparine) [7]; rate 0.0320 kg/ha): 7.0
Postemergence herbicidal rating, GALAP (GALAP (Galium aparine) [7]; rate 0.0620 kg/ha): 7.0
Postemergence herbicidal rating, GALAP (GALAP (Galium aparine) [7]; rate 0.1250 kg/ha): 5.0
ORYSAT preemergence herbicidal rating (ORYSAT (Rice, Tebonnet) [8]; Rate 0.0620 kg/ha): 4.3
ORYSAT preemergence herbicidal rating (ORYSAT (Rice, Tebonnet) [8]; Rate 0.1250 kg/ha): 6.7
ORYSAT preemergence herbicidal rating (ORYSAT (Rice, Tebonnet) [8]; Rate 0.2500 kg/ha): 8.0
TRZAWR preemergence herbicidal rating ([9]; Rate 0.0620 kg/ha): 5.5
TRZAWR preemergence herbicidal rating ([9]; Rate 0.1250 kg/ha): 7.5
TRZAWR preemergence herbicidal rating ([9]; Rate 0.2500 kg/ha): 8.5
Postemergence herbicidal rating, ZEAMX (ZEAMX (Corn, Field); rate 0.0320 kg/ha): 5.3
Postemergence herbicidal rating, ZEAMX (ZEAMX (Corn, Field); rate 0.0620 kg/ha): 5.8
Postemergence herbicidal rating, ZEAMX (ZEAMX (Corn, Field); rate 0.1250 kg/ha): 5.5
Postemergence herbicidal rating, ORYSAT (ORYSAT (Rice, Tebonnet) [10]; rate 0.0320 kg/ha): 3.8
Postemergence herbicidal rating, ORYSAT (ORYSAT (Rice, Tebonnet) [10]; rate 0.0620 kg/ha): 4.3
Postemergence herbicidal rating, ORYSAT (ORYSAT (Rice, Tebonnet) [10]; rate 0.1250 kg/ha): 3.0
Postemergence herbicidal rating, GLXMAW ([11]; rate 0.0320 kg/ha): 8.3
Postemergence herbicidal rating, GLXMAW ([11]; rate 0.0620 kg/ha): 8.3
Postemergence herbicidal rating, GLXMAW ([11]; rate 0.1250 kg/ha): 9.0
Postemergence herbicidal rating, IPOHE ([12]; rate 0.0320 kg/ha): 9.0
Postemergence herbicidal rating, IPOHE ([12]; rate 0.0620 kg/ha): 9.0
Postemergence herbicidal rating, IPOHE ([12]; rate 0.1250 kg/ha): 9.0
